The assay has as its target T1, mTLR7 (Mus musculus, UniProt P58681).
T1 construct: Splenocytes isolated from male C57/BL6 mice; from tissue; host or cells: splenocytes from the spleen of male C57BL/6 mice
T1 sequence (P58681 27-1050): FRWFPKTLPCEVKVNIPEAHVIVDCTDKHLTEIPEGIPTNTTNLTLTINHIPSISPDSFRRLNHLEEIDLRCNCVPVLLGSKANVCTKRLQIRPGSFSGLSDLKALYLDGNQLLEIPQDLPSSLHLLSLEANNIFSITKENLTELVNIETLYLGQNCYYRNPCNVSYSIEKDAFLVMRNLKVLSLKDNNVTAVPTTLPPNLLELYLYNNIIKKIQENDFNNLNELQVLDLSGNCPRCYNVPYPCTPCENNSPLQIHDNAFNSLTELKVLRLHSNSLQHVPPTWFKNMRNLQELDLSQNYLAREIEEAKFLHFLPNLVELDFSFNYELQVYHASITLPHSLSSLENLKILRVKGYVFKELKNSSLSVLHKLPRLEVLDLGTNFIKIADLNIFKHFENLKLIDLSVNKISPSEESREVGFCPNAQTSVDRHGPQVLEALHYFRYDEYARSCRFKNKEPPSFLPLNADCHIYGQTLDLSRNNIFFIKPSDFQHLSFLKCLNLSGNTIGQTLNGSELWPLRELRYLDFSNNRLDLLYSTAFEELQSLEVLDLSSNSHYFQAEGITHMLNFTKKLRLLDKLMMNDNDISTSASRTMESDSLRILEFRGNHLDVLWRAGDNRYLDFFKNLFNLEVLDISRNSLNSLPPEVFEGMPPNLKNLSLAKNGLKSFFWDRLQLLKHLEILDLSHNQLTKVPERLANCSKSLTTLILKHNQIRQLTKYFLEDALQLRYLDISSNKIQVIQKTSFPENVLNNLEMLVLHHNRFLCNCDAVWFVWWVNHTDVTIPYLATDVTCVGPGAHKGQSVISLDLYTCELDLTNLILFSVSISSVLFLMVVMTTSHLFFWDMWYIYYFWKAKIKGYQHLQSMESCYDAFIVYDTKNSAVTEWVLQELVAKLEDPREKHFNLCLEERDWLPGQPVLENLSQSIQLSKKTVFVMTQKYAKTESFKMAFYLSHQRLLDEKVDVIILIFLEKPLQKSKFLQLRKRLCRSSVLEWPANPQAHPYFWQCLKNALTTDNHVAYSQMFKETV
Put plainly: mTLR7 antagonism (IL-6 and TNF-α release assay) in mouse splenocytes, R0006/DOTAP stimulated. The assay is classed as cell-based. The conditions noted are these: 1 μM, mouse splenocytes. An excerpt:
mTLR9 and mTLR7 Antagonism (Cytokine Release Assay) in Mouse Splenocytes
TLR7 ligand R0006 (IDT, 5′-rU*rU*rG*rU*rU*rG*rU*rU*rG*rU*rU*rG*rU*rU*rG*rU*rU*rG*rU*rU-3′ (SEQ ID NO:1)), Liposomal transfection reagent—DOTAP (Roche, Cat. No. 11202375001), TLR9 ligand CpG ODN2006 (Sequence: T*C*G*T*C*G*T*T*T*T*G*T*C*G*T*T*T*T*G*T*C*G*T*T; *=phosphorothioate (SEQ ID NO:2)) DMSO (Sigma, D2650), RPMI Powder (Sigma, R6504), Fetal Bovine Serum (Gibco, 10270), Dulbecco's Phosphate Buffered Saline (Sigma, D1408), 96 well plate (Flat bottom, Costar 3599), ELISA kit for IL-6 (EBioscience, 88-7064-77 and TNFa (EBioscience, 88-7346-88), MACS Buffer (AutoMACS Rinsing Solution (Miltenyl Biotec, 130-091-222)+0.05% BSA), RBC lysis buffer (0.85% NH4Cl), 40 μm cell strainer (BD Falcon, 352340) Method: A. Isolation of Mouse Splenocytes
Mouse spleen was isolated from C57BL6 mouse and stored in 1× chilled PBS buffer until further processed. Spleen was transferred to a sterile petriplate and chopped in to 5-6 pieces in presence of MACS buffer (100 μl) with the help of fresh surgical blade and crushed with flat plunger of a sterile syringe. A uniform suspension was prepared by passing cells through a 40 μm cell strainer. Cells were centrifuged at 450×g for 5 minutes at 4° C., supernatant was discarded and pellet dislodged gently, resuspended in 2 ml of pre-warmed (37° C.) RBC lysis buffer at room temperature with continuous gentle mixing with 1 ml pipette. Lysis buffer was neutralized with 12 ml of chilled MACS buffer and cells were passed through 40 μm cell strainer. Cell suspension was collected in 15 ml MACS buffer and centrifuged at 450×g for 5 minutes at 4° C. Pellet was resuspended in 15 ml MACS buffer and centrifuged at 400×g for 5 minutes. Cells were resuspended in 10 ml of RPMI complete medium and viability was estimated by Trypan blue method.
mTLR7 Antagonism (IL-6 and TNF-α Release Assay):
1 mg/ml stock of R0006 was prepared in sterile, endotoxin-free water. R0006 stock was diluted 10 fold with DOTAP and incubated for 30 minutes to form liposome complex (100 μg/ml of R0006). This complex was further diluted 10 fold with incomplete RPMI media (10 μg/ml of R0006) to achieve the final agonist concentration of 1 μg/ml. DOTAP alone was diluted 10 fold in incomplete RPMI media. NCEs were added in a concentration range of 30 μM to 1 nM in respective wells of assay plate, assay medium containing 0.3% DMSO were added to control wells. 0.2 million splenocytes were added to all the wells and incubated at 37° C. in 5% CO2 incubator for 30 minutes. 1 μg/ml of respective agonist was added to all the wells except those were assigned as negative controls and mixed thoroughly. DOTAP was added to negative control wells and incubated overnight at 37° C./5% CO2. The plate was centrifuged at 450×g for 5 minutes at room temperature and the supernatant was collected. ELISA was performed as per manufacturer's protocol. S/B Ratio, % Activity and % Inhibition was calculated using MS Excel. IC50 and inhibition curve was generated using Graph Pad Prism.

Where [1] appears, read: IL-6 release, read-out: mTLR7 inhibitory activity (% at 1 μM), IL-6.
Where [2] appears, read: TNF-α release, read-out: mTLR7 inhibitory activity (% at 1 μM), TNF-α.

Like-named read-outs stand apart in the source and are kept apart here.

Regarding `Cc1cc2c(cc(CN3CCOCC3)n2C)c(-c2ccc(N3CCN(C(C)C)CC3)cc2)n1` [Example A35, 4-[[4-[4-(4-isopropylpiperazin-1-yl]phenyl]-1,6-dimethyl-pyrrolo[3,2-c]pyridin-2-yl]methyl] morpholine], the inhibition at 1 µM is 100% under setting [1] and 100% under setting [2].
`Cc1nc(-c2ccc(N3CCN(C(C)C)CC3)cc2)c2cc(CN3CCOCC3)[nH]c2c1C` [Example A36, 4-[[4-[4-(4-isopropylpiperazin-1-yl)phenyl]-6,7-dimethyl-1H-pyrrolo[3,2-c]pyridin-2-yl]methyl] morpholine]: the inhibition at 1 µM runs as follows: under setting [1], 100%; under setting [2], 99%.
In the case of `Cc1nc(-c2ccc(N3CCN(C)CC3)cc2)c2cc(CN3CCOCC3)[nH]c2c1C` [Example A37, 4-[[6,7-dimethyl-4-[4-(4-methylpiperazin-1-yl)phenyl]-1H-pyrrolo[3,2-c]pyridin-2-yl]methyl] morpholine], the inhibition at 1 µM under setting [2] turned out to be 100%.
Consider `CCN1CCN(c2ccc(-c3nc(C)c(C)c4[nH]c(CN5CCOCC5)cc34)cc2)CC1` [Example A38, 4-[[4-[4-(4-ethylpiperazin-1-yl)phenyl]-6,7-dimethyl-1H-pyrrolo[3,2-c]pyridin-2-yl]methyl] morpholine], for which the inhibition at 1 µM runs as follows: under setting [1], 100%; under setting [2], 100%.
With `Cc1nc(-c2ccc(N3CCN(C(C)C)CC3)cc2)c2cc(CN3CCCCC3)[nH]c2c1C` [Example A39, 4-[4-(4-isopropylpiperazin-1-yl)phenyl]-6,7-dimethyl-2-(1-piperidylmethyl)-1H-pyrrolo[3,2-c]pyridine], under setting [2], the inhibition at 1 µM was found to be 100%.
Same read-out and setting: for `Cc1nc(-c2ccc(N3CCN(C(C)C)CC3)cc2)c2cc(CN3CCCC3)[nH]c2c1C` [Example A40, 4-[4-(4-isopropylpiperazin-1-yl)phenyl]-6,7-dimethyl 2-(pyrrolidin-1-ylmethyl)-1H-pyrrolo[3,2-c)pyridine] the value was 100%.
Take `c1cc2[nH]c(CN3CCOCC3)cc2c(-c2ccc(N3CCNCC3)cc2)n1` [Example A42, 4-[[4-(4-(piperazin-1-yl)phenyl)-1H-pyrrolo[3,2-c]pyridin-2-yl]methyl] morpholine]: the inhibition at 1 µM under setting [1] was 34% and the inhibition at 1 µM under setting [2] turned out to be 9%.
For `c1cc2[nH]c(CN3CCOCC3)cc2c(-c2ccc(OC3CCNCC3)cc2)n1` [Example A49, 4-[[4-[4-(4-piperidyloxy)phenyl]-1H-pyrrolo[3,2-c]pyridin-2-yl]methyl]morpholine], the inhibition at 1 µM by setting is: under setting [1], 2%; under setting [2], 3%.
The corresponding values for `Cc1cc2[nH]c(CN3CCOCC3)cc2c(-c2ccc(C3CCN(C(C)C)CC3)cc2)n1` [Example A51, 4-[[4-[4-(1-isopropyl-4-piperidyl)phenyl]-6-methyl-1H-pyrrolo[3,2-c]pyridin-2-yl]methyl]morpholine] are 100% and 96%.
Taken in the same sequence, the figures for `CC(C)N1CC=C(c2ccc(-c3nccc4[nH]c(CN5CCOCC5)cc34)cn2)CC1` [Example A52, 4-[[4-[6-(1-isopropyl-3,6-dihydro-2H-pyridin-4-yl)-3-pyridyl]-1H-pyrrolo[3,2-c]pyridin-2-yl]methyl]morpholine] were 71% and 10%.
Taken in the same sequence, the figures for `CC(C)N1CCN(c2ccc(-c3nccc4[nH]c(CN5CCOCC5)cc34)cn2)CC1` [Example A53, 4-[[4-[6-(4-isopropylpiperazin-1-yl)-3-pyridyl]-1H-pyrrolo[3,2-c]pyridin-2-yl]methyl]morpholine] were 100% and 83%.
In the case of `CC(C)N1CCC(n2cc(-c3nccc4[nH]c(CN5CCOCC5)cc34)cn2)CC1` [Example A54, 4-[[4-[1-(1-isopropyl-4-piperidyl)pyrazol-4-yl]-1H-pyrrolo[3,2-c]pyridin-2-yl]methyl]morpholine], the inhibition at 1 µM under setting [2] is 0%.
For `CC(C)N1CCN(Cc2ccc(-c3nccc4[nH]c(CN5CCOCC5)cc34)cc2)CC1` [Example A55, 4-[[4-[4-[(4-isopropylpiperazin-1-yl)methyl]phenyl]-1H-pyrrolo[3,2-c]pyridin-2-yl]methyl]morpholine], the inhibition at 1 µM amounted to 100% under setting [1] and 33% under setting [2].
For `CC(C)N1CCC(Oc2ccc(-c3nccc4[nH]c(CN5CCOCC5)cc34)cc2)CC1` [Example A56, 4-[[4-[4-[(1-isopropyl-4-piperidyl)oxy]phenyl]-1H-pyrrolo[3,2-c]pyridin-2-yl]methyl]morpholine], the inhibition at 1 µM under setting [2] stood at 64%.
As to `CC(C)N1CCN(c2cccc(-c3nccc4[nH]c(CN5CCOCC5)cc34)c2)CC1` [Example A57, 4-[[4-[3-(4-isopropylpiperazin-1-yl)phenyl]-1H-pyrrolo[3,2-c]pyridin-2-yl]methyl]morpholine], the inhibition at 1 µM runs as follows: under setting [1], 80%; under setting [2], 79%.
Regarding `CN1CCN(Cc2ccc(-c3nccc4[nH]c(CN5CCOCC5)cc34)cc2)CC1` [Example A60, 4-[[4-[4-[(4-methylpiperazin-1-yl)methyl]phenyl]-1H-pyrrolo[3,2-c]pyridin-2-yl]methyl]morpholine], the inhibition at 1 µM under setting [2] came to 29%.
`CN1CCN(c2cccc(-c3nccc4[nH]c(CN5CCOCC5)cc34)c2)CC1` [Example A61, 4-[[4-[3-(4-methylpiperazin-1-yl)phenyl]-1H-pyrrolo[3,2-c]pyridin-2-yl]methyl]morpholine]: the inhibition at 1 µM is, setting by setting: under setting [1], 78%; under setting [2], 74%.
As for `CN1CCC(Oc2ccc(-c3nccc4[nH]c(CN5CCOCC5)cc34)cc2)CC1` [Example A62, 4-[[4-[4-[(1-methyl-4-piperidyl)oxy]phenyl]-1H-pyrrolo[3,2-c]pyridin-2-yl]methyl]morpholine], under setting [2], the inhibition at 1 µM is 75%.
Take `CN1CCC(n2cc(-c3nccc4[nH]c(CN5CCOCC5)cc34)cn2)CC1` [Example A63, 4-[[4-[1-(1-methyl-4-piperidyl)pyrazol-4-yl]-1H-pyrrolo[3,2-c]pyridin-2-yl]methyl]morpholine]: the inhibition at 1 µM under setting [2] turned out to be 0%.

These data come from patent publication US9643967B2, “Pyrrolo[3,2-c]pyridine derivatives as TLR inhibitors” (TAKEDA PHARMACEUTICAL COMPANY LIMITED, priority 2013, dated 2017).
